How the values were obtained:
[1] = target: T1, TrXyl3A (Trichoderma reesei, UniProt Q92458); test: X-ray crystal structure, […] Å; assay type: binding; settings: crystal soaked 1 h with 14 mM 4-thioxylobiose, pH 7.0; subsites -1 and +1
T1 construct: gene bxl1; kinetics: synthetic gene codon-optimized, pPICZalpha A, secreted from Pichia pastoris KM71H; crystals: protein gift from DuPont Industrial Bioscience; 777 residues; dimer in asymmetric unit

[2] = target: T2, PcBxl3 (Phanerodontia chrysosporium, UniProt Z9K6S9QQP9); test: X-ray crystal structure, […] Å; assay type: binding; settings: crystal soaked briefly in 100 mM xylobiose, 40% PEG 400; Endo H deglycosylated; subsite -1
T2 construct: cDNA from strain K-3, pPICZalpha A, secreted from Pichia pastoris KM71H; 743 residues; glycosylated, Endo H treated for crystals; monomer in asymmetric unit
T2 sequence (Z9K6S9QQP9 1-743): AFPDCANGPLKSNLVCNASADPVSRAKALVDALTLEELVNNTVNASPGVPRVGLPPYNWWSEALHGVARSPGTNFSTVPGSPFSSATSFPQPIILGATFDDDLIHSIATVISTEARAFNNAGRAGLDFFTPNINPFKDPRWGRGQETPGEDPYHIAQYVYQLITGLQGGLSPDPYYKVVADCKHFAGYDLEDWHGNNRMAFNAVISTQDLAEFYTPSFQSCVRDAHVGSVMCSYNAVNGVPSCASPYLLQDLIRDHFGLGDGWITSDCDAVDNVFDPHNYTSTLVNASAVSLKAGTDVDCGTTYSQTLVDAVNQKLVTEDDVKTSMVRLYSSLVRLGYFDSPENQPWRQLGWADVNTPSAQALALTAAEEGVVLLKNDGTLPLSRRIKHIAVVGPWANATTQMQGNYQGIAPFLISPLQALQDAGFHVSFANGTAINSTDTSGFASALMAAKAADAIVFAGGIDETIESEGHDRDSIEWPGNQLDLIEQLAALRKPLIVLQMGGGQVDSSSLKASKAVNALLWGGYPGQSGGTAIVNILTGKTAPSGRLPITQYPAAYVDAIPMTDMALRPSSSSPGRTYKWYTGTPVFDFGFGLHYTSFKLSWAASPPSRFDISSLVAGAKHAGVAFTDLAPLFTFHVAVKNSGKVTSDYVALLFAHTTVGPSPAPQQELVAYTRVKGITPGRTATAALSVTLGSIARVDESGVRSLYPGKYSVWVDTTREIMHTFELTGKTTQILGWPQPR

T1 sequence (Q92458 entry or part of it): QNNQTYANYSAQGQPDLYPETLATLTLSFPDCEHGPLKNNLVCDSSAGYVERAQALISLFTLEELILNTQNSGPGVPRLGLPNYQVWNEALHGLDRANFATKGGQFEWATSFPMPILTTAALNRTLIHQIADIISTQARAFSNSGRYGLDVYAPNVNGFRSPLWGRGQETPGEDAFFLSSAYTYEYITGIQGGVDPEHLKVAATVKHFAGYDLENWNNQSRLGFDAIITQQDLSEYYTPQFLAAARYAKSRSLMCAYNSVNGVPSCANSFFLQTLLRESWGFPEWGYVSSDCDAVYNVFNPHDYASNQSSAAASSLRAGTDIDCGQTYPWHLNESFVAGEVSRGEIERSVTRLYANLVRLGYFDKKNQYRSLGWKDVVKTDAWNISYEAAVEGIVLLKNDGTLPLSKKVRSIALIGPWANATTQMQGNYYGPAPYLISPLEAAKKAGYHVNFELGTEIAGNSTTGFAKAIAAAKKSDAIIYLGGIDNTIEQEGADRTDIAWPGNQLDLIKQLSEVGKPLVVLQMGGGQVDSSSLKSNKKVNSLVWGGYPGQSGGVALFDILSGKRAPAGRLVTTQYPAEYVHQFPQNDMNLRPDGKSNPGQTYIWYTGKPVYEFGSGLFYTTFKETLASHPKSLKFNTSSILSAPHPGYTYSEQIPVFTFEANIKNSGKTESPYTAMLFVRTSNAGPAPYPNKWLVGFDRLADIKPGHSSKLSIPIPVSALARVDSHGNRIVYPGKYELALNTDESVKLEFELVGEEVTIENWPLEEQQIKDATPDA

| SMILES | X-ray crystal structure, 2.1 Å [1] | X-ray crystal structure, 3.08 Å [2] |
| --- | --- | --- |
| OC1OC[C@@H](S[C@@H]2OC[C@@H](O)[C@H](O)[C@H]2O)[C@H](O)[C@H]1O (some centres unmarked) [4-thioxylobiose] | The crystal structure of TrXyl3A bound with thioxylobiose was determined by molecular replacement |  |
| OC1OC[C@@H](O)[C@H](O)[C@H]1O (some centres unmarked) [X, xylose] |  | The structure of PcBxl3 with xylose bound in the catalytic center was also determined |

Source: PMC8913315, “Comparison of glycoside hydrolase family 3 β-xylosidases from basidiomycetes and ascomycetes reveals evolutionarily distinct xylan degradation systems” (The Journal of Biological Chemistry, 2022)
